Key:
[1] = system: Canine Cardiac Atrioventricular Node Function; experiment: Test of the Suppression of Canine Cardiac Atrioventricular Node Function; format: in vivo; conditions: anesthetized male beagle dogs, 0.1 mg/kg intravenously, 1 hour after administration (compound A), 30 minutes (Verapamil), vs control group; for change in AH intervals in the His bundle electrocardiograms during high-frequent stimulation by pacing: pacing the right atrium at intervals of 400 msec and 300 msec
From the text: Male beagle dogs were employed in this test. Under halothane anesthesia, an electrode catheter was inserted from the left femoral artery and the front end thereof was placed in the non-coronary cusp of His bundle to thereby record the His bundle electrocardiogram. A pacing catheter was inserted via a sheath introducer placed in the right femoral vein and the front end thereof was fixed to the inner wall of the right atrium. Electrodes for recording body surface electrocardiogram were attached to the four limbs and thus the second-lead electrocardiogram was recorded. A drug was administered via the sheath introducer placed in the left femoral vein.
Verapamil, which was used as a comparative compound, was intravenously administered in a dose of 0.1 mg/kg. A group to which a vehicle was administered was referred to as the control group.
After the stabilization period following the surgical operation, AH intervals in the His bundle electrocardiograms were measured in the sinus rhythm and during pacing the right atrium at intervals of 400 msec and 300 msec. […] In the case of the comparative drug Verapamil, the AH intervals in the His bundle electrocardiogram as described above were measured before the administration and 30 minutes after the administration. The effect of a compound was expressed in the change in the AH intervals in the individual His bundle electrocardiograms in the sinus rhythm and during pacing the right atrium at intervals of 400 msec and 300 msec from the value before the administration of the drug and the data were compared with the data of the control group (Student's t-test) at a significant level of 5%. The term “AH interval in His bundle electrocardiogram” means the period of time wherein an electrical excitation generated at the atrium passes the atrioventricular node and arrives at His bundle.

[2] = system: Anesthetized Swine Ventricular Rate; experiment: Test of Measurement of Anesthetized Swine Ventricular Rate; format: in vivo, pigs (Landrace/White F1)
Method: Male pigs (Landrace/White F1) were employed in this test. Under pentbarbital anesthesia, a thoracotomy was performed at the fourth right intercostal space and an electrode for electrical stimulation was attached to the right atrial surface thus exposed. Electrodes for recording body surface electrocardiogram were attached to the four limbs and thus the second-lead electrocardiogram was recorded. A catheter for drug administration was placed in the right femoral vein. Compound A was intravenously administered in a dose of 0.3 mg/kg. Atenolol, which was a β-blocker used as a comparative compound, was intravenously administered in a dose of 1 mg/kg. A group to which a vehicle was administered was referred to as the control group. A 50 Hz burst stimulation was applied to the right atrium via the electrode for electrical stimulation and the ventricular rate per minute was measured as R-waves in the body surface electrocardiogram. Thirty minutes after the administration of compound A or the comparative drug, a 50 Hz burst stimulation was applied again to the right atrium and then the R-waves per minute in the body surface electrocardiogram were measured.

Compound	change in AH intervals in the His bundle electrocardiograms during high-frequent stimulation by pacing [1]	change in AH interval in the His bundle electrocardiogram in the sinus rhythm [1]	change in ventricular rate (R waves per minute) during the 50 Hz burst stimulation ([2]; anesthetized male pigs, 0.3 mg/kg intravenously, 30 minutes after administration, 50 Hz burst stimulation of right atrium, vs control group)	efficacy relative to Atenolol in controlling the ventricular rate ([2]; anesthetized pigs, compound A 0.3 mg/kg vs Atenolol 1 mg/kg intravenously)
COc1cc2c(cc1OC)CN(C(=O)[C@@H]1CCCN(CCNC(=O)c3ccc(F)cc3)C1)CC2 [compound A, (−)-N-{2-[(R)-3-(6,7-dimethoxy-1,2,3,4-tetrahydroisoquinoline-2-carbonyl)piperidino]ethyl}-4-fluorobenzamide monophosphate]	prolonged at a significant level of 1%	no effect	significantly decreases	stronger by thrice or more
COc1cc2c(cc1OC)CC(=O)N(CCCN(C)C[C@H]1Cc3cc(OC)c(OC)cc31)CC2 [Ivabradine]	no significant difference at a significant level of 5% was observed	do not suppress the atrioventricular node function in the sinus rhythm	–	–
COc1ccc(CCN(C)CCCC(C#N)(c2ccc(OC)c(OC)c2)C(C)C)cc1OC (centres unmarked) [Verapamil]	significantly prolonged	significantly prolonged	–	–
